According to patent US20260216294A1, “BETA 2-ADRENERGIC RECEPTOR AGONISTS FOR TREATMENT OR PREVENTION OF MUSCLE WASTING” (ATROGI AB, priority 2023, published 2026):

Tests used:
[1] = system: L6-myotubes; assay: Glucose uptake in differentiated L6-myotubes (Biological Example 2); format: cell-based; conditions: read-out: Biological example 2 (GU)
How it was run: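 Uptake was quantified as radioactivity in 0.2 M NaOH lysates after a 10 min pulse of 50 nM ^3H-2-deoxyglucose. The pulse followed two agonist exposures at 1×10^−5 M final (isoprenaline or test compound): 1 h 40 min, then 20 min in glucose-free medium after washing. L6 myotubes had been starved overnight in medium with 0.5% fatty-acid-free BSA.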

[2] = system: L6-myotubes; assay: Measurement of intracellular cAMP levels in differentiated L6-myotubes (Biological Example 3); format: cell-based; conditions: 0.25 h
How it was run: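 Intracellular cAMP quantified by AlphaScreen after ethanol extraction and lysis of L6 myotubes. Cells were serum-starved overnight, then exposed for 15 min to compound (final 1×10^−5 M) or isoprenaline in IBMX-containing (1 mM) HBSS buffer, pH 7.4.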

[3] = glucose uptake, compound at 10 μM relative to isoproterenol at 10 μM
[4] = intracellular cAMP, compound at 10 μM relative to isoproterenol at 10 μM
[5] = glucose uptake in differentiated L6-myotubes, compound at 10 μM, activity relative to isoproterenol at 10 μM
[6] = intracellular cAMP in differentiated L6-myotubes, compound at 10 μM, activity relative to isoproterenol at 10 μM

Compound	Emax at 10 µM [1, 3]	Emax at 10 µM [2, 4]	Emax at 10 µM [1, 5]	Emax at 10 µM [2, 6]
O[C@@H](c1cccc(F)c1)[C@H]1CCC2(CC2)N1 [Compound 171]	25 to 50%	< 25%		
CC1(C)CC[C@H]([C@@H](O)c2ccc(F)cc2)N1 [Compound 172]	< 25%	< 25%		
CC1(C)CC[C@H]([C@H](O)c2ccc(F)cc2)N1 [Compound 173]	50 to 75%	< 25%		
CC1(C)CC[C@H]([C@@H](O)c2ccccc2F)N1 [Compound 174, (S)-[(R)-5,5-dimethyl-2-pyrrolidinyl](o-fluorophenyl)methanol]	< 25%	< 25%		
CC1(C)CCC[C@H]([C@@H](O)c2ccccc2F)N1 [Compound 176, (S)-[(R)-6,6-dimethyl-2-piperidyl](o-fluorophenyl)methanol]	> 75%	25 to 50%		
CC1(C)CCC[C@H]([C@H](O)c2ccccc2F)N1 [Compound 177, (R)-[(R)-6,6-dimethyl-2-piperidyl](o-fluorophenyl)methanol]	50 to 75%	< 25%		
CC12CCC([C@@H](O)c3cccc(F)c3)(CC1)N2 [Compound 178, (S)-(m-fluorophenyl)(4-methyl-7-azabicyclo[[2.2.1]]hept-1-yl)methanol]	25 to 50%	< 25%		
CC12CCC([C@H](O)c3cccc(F)c3)(CC1)N2 [Compound 179, (R)-(m-fluorophenyl)(4-methyl-7-azabicyclo[[2.2.1]]hept-1-yl)methanol]	50 to 75%	< 25%		
CC12CCC([C@@H](O)c3ccccc3F)(CC1)N2 [Compound 180, (S)-(o-fluorophenyl)(4-methyl-7-azabicyclo[[2.2.1]]hept-1-yl)methanol]	> 75%	< 25%		
CC12CCC([C@H](O)c3ccccc3F)(CC1)N2 [Compound 181, (R)-(o-fluorophenyl)(4-methyl-7-azabicyclo[[2.2.1]]hept-1-yl)methanol]	> 75%	< 25%		
CCC12CCC([C@@H](O)c3cccc(F)c3)(CC1)N2 [Compound 182, (S)-(m-fluorophenyl)(4-propyl-7-azabicyclo[[2.2.1]]hept-1-yl)methanol]	< 25%	< 25%		
CCCC12CCC([C@H](O)c3cccc(F)c3)(CC1)N2 [Compound 183, (R)-(m-fluorophenyl)(4-propyl-7-azabicyclo[[2.2.1]]hept-1-yl)methanol]	50 to 75%	25 to 50%		
CC12CCC([C@@H](O)c3cncc(F)c3)(CC1)N2 [Compound 184, (S)-(5-fluoro-3-pyridyl)(4-methyl-7-azabicyclo[[2.2.1]]hept-1-yl)methanol]	50 to 75%	< 25%		
CC12CCC([C@H](O)c3cncc(F)c3)(CC1)N2 [Compound 185, (R)-(5-fluoro-3-pyridyl)(4-methyl-7-azabicyclo[[2.2.1]]hept-1-yl)methanol]	> 75%	< 25%		
CC12CC(C1)[C@H]([C@H](O)c1cccc(F)c1)N2 [Compound 186]	> 75%	50 to 75%		
CC12CC(C1)[C@H]([C@@H](O)c1cccc(F)c1)N2 [Compound 187]	25 to 50%	< 25%		
CC12CC(C1)[C@@H]([C@H](O)c1cccc(F)c1)N2 [Compound 188, (R)-{(S)-1-methyl-2-azabicyclo[[2.1.1]]hex-3-yl}(m-fluorophenyl)methanol]	< 25%	< 25%		
CC12CC(C1)[C@@H]([C@@H](O)c1cccc(F)c1)N2 [Compound 189]	50 to 75%	< 25%		
CC1(C)CCC[C@@H]([C@H](O)c2cccc(F)c2)N1 [Compound 190]	> 75%	< 25%		

Compound	Emax at 10 µM [1, 3]	Emax at 10 µM [2, 4]	Emax at 10 µM [1, 5]	Emax at 10 µM [2, 6]
CC1(C)CCC[C@@H]([C@@H](O)c2cccc(F)c2)N1 [Compound 191]	25 to 50%	< 25%		
CC1(C)CCC[C@@H]([C@@H](O)c2ccccc2F)N1 [Compound 192, (S)-[(S)-6,6-dimethyl-2-piperidyl](o-fluorophenyl)methanol]	25 to 50%	< 25%		
CC1(C)CCC[C@@H]([C@H](O)c2ccccc2F)N1 [Compound 193]	> 75%	25 to 50%		
CC12CCC([C@@H](O)c3ccccc3Cl)(CC1)N2 [Compound 194, (S)-(o-chlorophenyl)(4-methyl-7-azabicyclo[[2.2.1]]hept-1-yl)methanol]	> 75%	< 25%		
CC12CCC([C@H](O)c3ccccc3Cl)(CC1)N2 [Compound 195, (R)-(o-chlorophenyl)(4-methyl-7-azabicyclo[[2.2.1]]hept-1-yl)methanol]	> 75%	< 25%		
CC12CCC([C@@H](O)c3cccc(Cl)c3)(CC1)N2 [Compound 196, (S)-(m-chlorophenyl)(4-methyl-7-azabicyclo[[2.2.1]]hept-1-yl)methanol]	25 to 50%	< 25%		
CC12CCC([C@H](O)c3cccc(Cl)c3)(CC1)N2 [Compound 197, (R)-(m-chlorophenyl)(4-methyl-7-azabicyclo[[2.2.1]]hept-1-yl)methanol]	> 75%	< 25%		
CC1(C)C[C@H]([C@H](O)c2cccc(F)c2)N1 [Compound 198, (R)-[(R)-4,4-dimethyl-2-azetidinyl](m-fluorophenyl)methanol]			> 75%	< 25%
CC1(C)C[C@@H]([C@@H](O)c2cccc(F)c2)N1 [Compound 199]			25 to 50%	< 25%
CC1(C)C[C@@H]([C@H](O)c2cccc(F)c2)N1 [Compound 200, (R)-[(S)-4,4-dimethyl-2-azetidinyl](m-fluorophenyl)methanol]			< 25%	< 25%
CC1(C)C[C@H]([C@@H](O)c2cccc(F)c2)N1 [Compound 201]			< 25%	< 25%
CC1(C)C[C@@H]([C@H](O)c2ccccc2F)N1 [Compound 202, (R)-[(S)-4,4-dimethyl-2-azetidinyl](o-fluorophenyl)methanol]			< 25%	< 25%
CC1(C)C[C@H]([C@@H](O)c2ccccc2F)N1 [Compound 203, (S)-[(R)-4,4-dimethyl-2-azetidinyl](o-fluorophenyl)methanol]			25 to 50%	< 25%
CC1(C)C[C@H]([C@H](O)c2ccccc2F)N1 [Compound 204, (R)-[(R)-4,4-dimethyl-2-azetidinyl](o-fluorophenyl)methanol]			> 75%	25 to 50%
CC1(C)C[C@@H]([C@@H](O)c2ccccc2F)N1 [Compound 205, (S)-[(S)-4,4-dimethyl-2-azetidinyl](o-fluorophenyl)methanol]			25 to 50%	< 25%
CC12CC(C1)[C@H]([C@H](O)c1cccc(Cl)c1)N2 [Compound 206]			> 75%	< 25%
CC12CC(C1)[C@@H]([C@@H](O)c1cccc(Cl)c1)N2 [Compound 207]			25 to 50%	< 25%
CC12CC(C1)[C@H]([C@@H](O)c1cccc(Cl)c1)N2 [Compound 208]			50 to 75%	< 25%
